Data taken from patent US9108921B2, “Therapeutic compounds and compositions” (AGIOS PHARMACEUTICALS, INC, priority 2014, dated 2015).

Key:
PKR R532W = PKR R532W (Homo sapiens, UniProt P30613, R532W); test: PKR Mutant Assay, AC50 against PKR R532W; type: biochemical; conditions: mutant PKR R532W enzyme
Summary of the method: (§1)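 LDH-coupled NADH depletion read as A340 change at room temperature after ADP (0.22-1.65 mM) start. Compounds, tested from 100 μM final in 3-fold steps over 11 points with 1% DMSO, sat 60 min with enzyme (80-400 ng/well), PEP 0.1-0.5 mM and NADH 180 uM in Tris pH 7.5/KCl/MgCl2/DTT/BSA buffer.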

PKR WT [1] = target: T1, PKR WT (Homo sapiens, UniProt P30613); test: PKR WT enzymatic AC50 assay; type: biochemical; conditions: wild type PKR
Summary of the method: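 PK-LDH coupled assay, RT. Enzyme + cpd + PEP/NADH/LDH, 60 min pre-incubation, no ADP. ADP 0.22-1.65 mM to initiate; A340 kinetic read. Cpd 11 pts, 3-fold, 100 μM top.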

PKR R510Q = PKR R510Q (Homo sapiens, UniProt P30613, R510Q); test: PKR Mutant Assay, AC50 against PKR R510Q; type: biochemical; conditions: mutant PKR R510Q enzyme
Summary of the method: as §1

PKR WT [2] = target: T1, PKR WT; test: PKR WT cell based AC50 assay; conditions: wild type PKR

T1 sequence (P30613 whole entry): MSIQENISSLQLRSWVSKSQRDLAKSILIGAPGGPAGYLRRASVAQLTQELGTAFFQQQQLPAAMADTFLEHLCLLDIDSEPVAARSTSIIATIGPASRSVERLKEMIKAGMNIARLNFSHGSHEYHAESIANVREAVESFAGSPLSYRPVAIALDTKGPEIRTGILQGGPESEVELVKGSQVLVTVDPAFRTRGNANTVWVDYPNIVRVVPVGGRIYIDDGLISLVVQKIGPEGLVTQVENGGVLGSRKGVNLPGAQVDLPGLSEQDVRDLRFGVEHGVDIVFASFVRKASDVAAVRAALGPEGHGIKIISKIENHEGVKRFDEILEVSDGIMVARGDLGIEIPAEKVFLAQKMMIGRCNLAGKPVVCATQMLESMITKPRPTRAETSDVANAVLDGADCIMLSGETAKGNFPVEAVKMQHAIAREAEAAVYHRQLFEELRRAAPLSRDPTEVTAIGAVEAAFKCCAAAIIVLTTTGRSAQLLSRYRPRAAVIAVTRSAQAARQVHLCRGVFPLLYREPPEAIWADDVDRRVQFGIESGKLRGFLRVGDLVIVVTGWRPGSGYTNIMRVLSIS
Chain of PKR R510Q (P30613 whole entry R510Q): as the sequence (P30613 whole entry) above, with R510Q counted along it
Chain of PKR R532W (P30613 whole entry R532W): as the sequence (P30613 whole entry) above, with R532W counted along it

Row | AC50 (PKR R532W) [nM] | AC50 (PKR WT [1]) [nM] | AC50 (PKR R510Q) [nM] | AC50 (PKR WT [2]) [nM] | Structure (SMILES)
1 | < 100 | < 100 | < 100 | < 100 | O=C(c1ccc(NS(=O)(=O)c2cccc3cccnc23)c(F)c1)N1CCC(O)(c2ccccc2Cl)CC1 [Compound 143, N-(4-(4-(2-chlorophenyl)-4-hydroxypiperidine-1-carbonyl)-2-fluorophenyl)quinoline-8-sulfonamide]
2 | < 100 | < 100 | 101 to 1000 | < 100 | O=C(c1ccc(NS(=O)(=O)c2cccc3cccnc23)cc1)N1CCC(O)(Cc2cccc(F)n2)CC1 [Compound 146, N-(4-(4-((6-fluoropyridin-2-yl)methyl)-4-hydroxypiperidine-1-carbonyl)phenyl)quinoline-8-sulfonamide]
3 | < 100 | < 100 | 101 to 1000 | < 100 | CC(C)(C)C1(O)CCN(C(=O)c2ccc(NS(=O)(=O)c3cccc4cccnc34)cc2)CC1 [Compound 195, N-(4-(4-(tert-butyl)-4-hydroxypiperidine-1-carbonyl)phenyl)quinoline-8-sulfonamide]
4 | 101 to 1000 | < 100 | < 100 | 101 to 1000 | O=C(c1ccc(NS(=O)(=O)c2cccc3c(O)ncnc23)cc1)N1CCC(O)(/C=C/CC(F)(F)F)CC1 [Compound 424]
5 | < 100 | < 100 | < 100 | < 100 | CC(C)CC1(CO)CCN(C(=O)c2ccc(NS(=O)(=O)c3cccc4cccnc34)cc2)CC1 [Compound 172, N-(4-(4-(hydroxymethyl)-4-isobutylpiperidine-1-carbonyl)phenyl)quinoline-8-sulfonamide]
6 | < 100 | < 100 | 101 to 1000 | < 100 | O=C(c1ccc(NS(=O)(=O)c2cccc3scnc23)cc1)N1CCC(O)(CC2CCC2)CC1 [Compound 212, N-(4-(4-(cyclobutylmethyl)-4-hydroxypiperidine-1-carbonyl)phenyl)benzo[d]thiazole-4-sulfonamide]
7 | < 100 | < 100 | 101 to 1000 | 101 to 1000 | O=C(c1ccc(NS(=O)(=O)c2cccc3ccoc23)cc1)N1CCC(O)(c2ccccc2Cl)CC1 [Compound 186, N-(4-(4-(2-chlorophenyl)-4-hydroxypiperidine-1-carbonyl)phenyl)benzofuran-7-sulfonamide]
8 | < 100 | < 100 | 101 to 1000 | < 100 | Cc1nc2c(S(=O)(=O)Nc3ccc(C(=O)N4CCC(O)(c5ccccc5Cl)CC4)cc3)cccc2o1 [Compound 383, N-(4-(4-(2-chlorophenyl)-4-hydroxypiperidine-1-carbonyl)phenyl)-2-methylbenzo[d]oxazole-4-sulfonamide]
9 | < 100 | < 100 | 101 to 1000 | < 100 | O=C(c1ccc(NS(=O)(=O)c2ccc(F)c3cccnc23)cc1)N1CCC(O)(c2ccccc2Cl)CC1 [Compound 179, N-(4-(4-(2-chlorophenyl)-4-hydroxypiperidine-1-carbonyl)phenyl)-5-fluoroquinoline-8-sulfonamide]
10 | < 100 | < 100 | < 100 | 101 to 1000 | COc1cc(NS(=O)(=O)c2cccc3cccnc23)ccc1C(=O)N1CCC(O)(Cc2ccccc2)CC1 [Compound 112, N-(4-(4-benzyl-4-hydroxypiperidine-1-carbonyl)-3-methoxyphenyl)quinoline-8-sulfonamide]
11 | 101 to 1000 | 101 to 1000 | 101 to 1000 | 101 to 1000 | CC(CC1(O)CCN(C(=O)c2ccc(NS(=O)(=O)c3cccc4scnc34)cc2)CC1)C(F)F (stereo not drawn) [Compound 405, N-(4-(4-(3,3-difluoro-2-methylpropyl)-4-hydroxypiperidine-1-carbonyl)phenyl)benzo[d]thiazole-4-sulfonamide]
12 | < 100 | < 100 | 101 to 1000 | < 100 | Cc1cccc(CC2(O)CCN(C(=O)c3ccc(NS(=O)(=O)c4cccc5cccnc45)cc3)CC2)c1 [Compound 118, N-(4-(4-hydroxy-4-(3-methylbenzyl)piperidine-1-carbonyl)phenyl)quinoline-8-sulfonamide]
13 | < 100 | < 100 | 101 to 1000 | < 100 | Cc1ncccc1C1(O)CCN(C(=O)c2ccc(NS(=O)(=O)c3cccc4cccnc34)cc2)CC1 [Compound 147, N-(4-(4-hydroxy-4-(2-methylpyridin-3-yl)piperidine-1-carbonyl)phenyl)quinoline-8-sulfonamide]
14 | < 100 | < 100 | < 100 | < 100 | CNc1nc2c(S(=O)(=O)Nc3ccc(C(=O)N4CCC(O)(CC(C)C)CC4)cc3)cc(Cl)cc2s1 [Compound 385, 6-chloro-N-(4-(4-hydroxy-4-isobutylpiperidine-1-carbonyl)phenyl)-2-(methylamino)benzo[d]thiazole-4-sulfonamide]
15 | 101 to 1000 | < 100 | 101 to 1000 | < 100 | CC(C)CC1(O)CCN(C(=O)c2ccc(NS(=O)(=O)c3cccc(O)c3N)cc2)CC1 [Compound 380, 2-amino-3-hydroxy-N-(4-(4-hydroxy-4-isobutylpiperidine-1-carbonyl)phenyl)benzenesulfonamide]
16 | < 100 | < 100 | 101 to 1000 | < 100 | O=C(c1ccc(NS(=O)(=O)c2cccc3cccnc23)cc1)N1CCC(O)(c2cnsc2)CC1 [Compound 180]
17 | < 100 | < 100 | 101 to 1000 | < 100 | O=C(c1ccc(NS(=O)(=O)c2cccc3cc(F)cnc23)cc1)N1CCC(O)(c2ccccc2)CC1 [Compound 218, 3-fluoro-N-(4-(4-hydroxy-4-phenylpiperidine-1-carbonyl)phenyl)quinoline-8-sulfonamide]
18 | 101 to 1000 | 101 to 1000 | 1010 to 10000 | 101 to 1000 | CC(C)(O)CC1(O)CCN(C(=O)c2ccc(NS(=O)(=O)c3cccc4cccnc34)cc2)CC1 [Compound 241, N-(4-(4-hydroxy-4-(2-hydroxy-2-methylpropyl)piperidine-1-carbonyl)phenyl)quinoline-8-sulfonamide]
19 | < 100 | < 100 | 101 to 1000 | 101 to 1000 | Cc1nc(C(=O)N2CCC(O)(c3ccccc3Cl)CC2)ccc1NS(=O)(=O)c1cccc2cccnc12 [Compound 210, N-(6-(4-(2-chlorophenyl)-4-hydroxypiperidine-1-carbonyl)-2-methylpyridin-3-yl)quinoline-8-sulfonamide]
20 | < 100 | < 100 | < 100 | < 100 | O=C(c1ccc(NS(=O)(=O)c2cccc3cccnc23)cc1)N1CCC(O)(c2ccccc2Cl)CC1 [Compound 122, N-(4-(4-(2-chlorophenyl)-4-hydroxypiperidine-1-carbonyl)phenyl)quinoline-8-sulfonamide]
21 | < 100 | < 100 | 101 to 1000 | 101 to 1000 | COc1ncccc1C1(O)CCN(C(=O)c2ccc(NS(=O)(=O)c3cccc4cccnc34)cc2)CC1 [Compound 211, N-(4-(4-hydroxy-4-(2-methoxypyridin-3-yl)piperidine-1-carbonyl)phenyl)quinoline-8-sulfonamide]
22 | < 100 | < 100 | 101 to 1000 | 101 to 1000 | O=C(c1ccc(NS(=O)(=O)c2cc(F)cc3cccnc23)cc1)N1CCC(O)(c2ccccc2Cl)CC1 [Compound 223, N-(4-(4-(2-chlorophenyl)-4-hydroxypiperidine-1-carbonyl)phenyl)-6-fluoroquinoline-8-sulfonamide]
23 | < 100 | < 100 | 101 to 1000 | 101 to 1000 | O=C(c1ccc(NS(=O)(=O)c2cccc3cccnc23)cc1)N1CCC(O)(c2ncccc2F)CC1 [Compound 148, N-(4-(4-(3-fluoropyridin-2-yl)-4-hydroxypiperidine-1-carbonyl)phenyl)quinoline-8-sulfonamide]
24 | < 100 | < 100 | < 100 | < 100 | O=C(c1ccc(NS(=O)(=O)c2cccc3cccnc23)cc1)N1CCC(O)(c2ccc(F)c(Br)n2)CC1 [Compound 133, N-(4-(4-(6-bromo-5-fluoropyridin-2-yl)-4-hydroxypiperidine-1-carbonyl)phenyl)quinoline-8-sulfonamide]
25 | < 100 | < 100 | 101 to 1000 | 101 to 1000 | O=C(c1ccc(NS(=O)(=O)c2cc(F)cc3cccnc23)cc1)N1CCC(O)(c2ccccc2)CC1 [Compound 196, 6-fluoro-N-(4-(4-hydroxy-4-phenylpiperidine-1-carbonyl)phenyl)quinoline-8-sulfonamide]
26 | < 100 | < 100 | 101 to 1000 | 101 to 1000 | O=C(c1ccc(NS(=O)(=O)c2cccc3scnc23)cc1)N1CCC(O)(c2ccccc2C(F)F)CC1 [Compound 215, N-(4-(4-(2-(difluoromethyl)phenyl)-4-hydroxypiperidine-1-carbonyl)phenyl)benzo[d]thiazole-4-sulfonamide]
27 | < 100 | < 100 | 101 to 1000 | < 100 | O=C(c1ccc(NS(=O)(=O)c2cccc3scnc23)cc1)N1CCC(O)(c2cccc(F)c2F)CC1 [Compound 178, N-(4-(4-(2,3-difluorophenyl)-4-hydroxypiperidine-1-carbonyl)phenyl)benzo[d]thiazole-4-sulfonamide]
